Laboratory results from article PMC8078777 (PLoS Pathogens, 2021).
Values joined by “and” are separate entries in the source; they are usually repeats but may differ in a detail not shown here. Equal values may be shown once.

Experiments:
NLPPp [1] = target: T1, NLPPp (Phytophthora nicotianae, UniProt Q9AT28); assay: Surface plasmon resonance binding to immobilized NLPPp; parameters: species or system Phytophthora parasitica; conditions: for Kd: SPR, steady-state affinity model, 50 mM MES, 150 mM NaCl, 5% DMSO, pH 5.8
T1 construct: made in house; host or cells: Pichia pastoris
T1 sequence (Q9AT28 20-237): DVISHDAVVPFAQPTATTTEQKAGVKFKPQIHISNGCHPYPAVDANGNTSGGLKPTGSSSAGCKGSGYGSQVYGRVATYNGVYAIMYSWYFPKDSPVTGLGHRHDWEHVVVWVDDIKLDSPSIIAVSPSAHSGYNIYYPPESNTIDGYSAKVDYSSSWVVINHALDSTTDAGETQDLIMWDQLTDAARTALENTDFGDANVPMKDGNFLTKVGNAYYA

NLPPp [2] = target: T1, NLPPp; assay: Tobacco leaf infiltration assay, NLPPp-induced necrosis; assay type: in vivo, Phytophthora parasitica; conditions: 400 nM NLPPp with different concentrations of compound, tobacco leaves, 24 h
NLPPp [3] = target: T1, NLPPp; parameters: method as in doi:10.1016/j.pmpp.2010.06.003; conditions: cited from earlier work
BcNEP1 = test system: BcNEP1; parameters: method as in doi:10.1016/j.pmpp.2010.06.003; conditions: cited from earlier work

| SMILES | Kd (NLPPp [1]) | effect on NLPPp-induced necrosis (NLPPp [2]) | SPR binding to NLPPp (in words) (NLPPp [1]) | effect against NLPPp (NLPPp [3]) | effect on necrosis-inducing action of BcNEP1 (BcNEP1) |
| --- | --- | --- | --- | --- | --- |
| COc1ccc(Nc2ccccc2C(=O)O)cc1 [6G7, 2-((4-methoxyphenyl)amino)benzoic acid] | 71.9 ± 19.1 µM | inhibited | – | – | – |
| Cc1ccc2occ(C3N[C@H](C(=O)O)CS3)c(=O)c2c1 (stereo partly drawn) [6C3, (4R)-2-(6-methyl-4-oxo-4H-chromen-3-yl)thiazolidine-4-carboxylic acid] | – | inhibited | nonspecific binding | – | – |
| O=C(N/N=C/c1ccc(O)c(O)c1)c1cc2ccccc2cc1O [dynasore] | – | – | – | ineffective | reduced |
| Cc1oc([C@@H](O)[C@H](O)[C@H](O)CO)cc1C(=O)O [6E11, 2-methyl-5-((1S,2R,3R)-1,2,3,4-tetrahydroxybutyl)furan-3-carboxylic acid, reference compound] | – | did not affect NLPPp cytotoxicity | – | – | – |
| O=C(Cc1c[nH]c2ccccc12)Nc1ccccc1CCOC(=O)Cc1c[nH]c2ccccc12 [7C8, 2-(2-(1H-indol-3-yl)acetamido)phenethyl 2-(1H-indol-3-yl)acetate] | 40.5 µM and ~50 µM | inhibited | – | – | – |
